Reference: ChEMBL document CHEMBL3797053, “2-Alkoxy-3-(sulfonylarylaminomethylene)-chroman-4-ones as potent and selective inhibitors of ectonucleotidases” (Eur J Med Chem, 2016)
Active and inactive are the calls of the source. No cut-off for these calls is given here.

What was measured:
5'-nucleotidase [1] = target: T1, 5'-nucleotidase (Rattus norvegicus, UniProt P21588); test: Inhibition of rat Ecto-5'-nucleotidase transfected in COS7 cells preincubated for 10 mins followed by AMP addition measured after 10 mins; type: cell-based, COS-7
T1 sequence (P21588 whole entry): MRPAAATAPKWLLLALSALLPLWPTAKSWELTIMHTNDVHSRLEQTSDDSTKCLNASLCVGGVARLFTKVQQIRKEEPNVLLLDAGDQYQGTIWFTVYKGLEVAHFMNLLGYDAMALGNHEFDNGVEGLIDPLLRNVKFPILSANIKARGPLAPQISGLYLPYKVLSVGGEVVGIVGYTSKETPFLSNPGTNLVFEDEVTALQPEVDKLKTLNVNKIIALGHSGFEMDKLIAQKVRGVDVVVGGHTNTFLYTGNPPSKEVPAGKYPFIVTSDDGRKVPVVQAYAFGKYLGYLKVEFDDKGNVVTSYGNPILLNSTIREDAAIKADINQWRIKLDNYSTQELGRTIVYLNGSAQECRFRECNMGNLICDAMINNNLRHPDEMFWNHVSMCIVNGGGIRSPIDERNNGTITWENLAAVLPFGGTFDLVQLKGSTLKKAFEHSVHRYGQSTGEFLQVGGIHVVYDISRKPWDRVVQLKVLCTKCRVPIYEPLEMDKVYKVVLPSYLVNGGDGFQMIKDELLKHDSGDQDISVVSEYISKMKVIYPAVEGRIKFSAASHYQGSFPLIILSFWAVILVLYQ

Bos taurus = organism: Bos taurus; test: Selectivity ratio of Ki for calf intestinal alkaline phosphatase to Ki for bovine tissue non-specific alkaline phosphatase
[2] = target: T2, Alkaline phosphatase, tissue-nonspecific isozyme (Bos taurus, UniProt P09487); test: Inhibition of bovine tissue non-specific alkaline phosphatase preincubated for 3 to 5 mins followed by CDP-star substrate addition measured after 15 mins by luminescence assay
T2 sequence (P09487 whole entry): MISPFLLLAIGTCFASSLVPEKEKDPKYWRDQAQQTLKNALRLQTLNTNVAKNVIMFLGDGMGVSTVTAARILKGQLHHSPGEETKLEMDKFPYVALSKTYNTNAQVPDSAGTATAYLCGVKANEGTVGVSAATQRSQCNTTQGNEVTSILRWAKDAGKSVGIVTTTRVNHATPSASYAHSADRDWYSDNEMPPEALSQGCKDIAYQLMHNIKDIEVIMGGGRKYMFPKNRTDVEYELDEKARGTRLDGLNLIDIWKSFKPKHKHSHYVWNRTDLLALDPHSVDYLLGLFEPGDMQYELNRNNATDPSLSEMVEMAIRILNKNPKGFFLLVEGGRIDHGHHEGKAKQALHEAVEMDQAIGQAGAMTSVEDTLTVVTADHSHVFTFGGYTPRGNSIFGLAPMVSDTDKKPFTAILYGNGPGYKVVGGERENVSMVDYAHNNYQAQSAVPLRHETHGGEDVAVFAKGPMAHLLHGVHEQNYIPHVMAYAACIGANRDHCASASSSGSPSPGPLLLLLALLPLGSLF

[3] = target: T3, Alkaline phosphatase, tissue-nonspecific isozyme (Bos taurus) (UniProt P09487); test: Competitive inhibition of bovine tissue non-specific alkaline phosphatase at 0.5 to 2 uM preincubated for 3 to 5 mins followed by CDP-star substrate addition measured after 15 mins by double-reciprocal plot analysis
T3 sequence (whole entry): T2 sequence (P09487 whole entry)

5'-nucleotidase [4] = target: T4, 5'-nucleotidase (Homo sapiens, UniProt P21589); test: Inhibition of human Ecto-5'-nucleotidase transfected in COS7 cells at 1 mM preincubated for 10 mins followed by AMP addition measured after 10 mins; type: cell-based; conditions: COS-7
T4 sequence (P21589 whole entry): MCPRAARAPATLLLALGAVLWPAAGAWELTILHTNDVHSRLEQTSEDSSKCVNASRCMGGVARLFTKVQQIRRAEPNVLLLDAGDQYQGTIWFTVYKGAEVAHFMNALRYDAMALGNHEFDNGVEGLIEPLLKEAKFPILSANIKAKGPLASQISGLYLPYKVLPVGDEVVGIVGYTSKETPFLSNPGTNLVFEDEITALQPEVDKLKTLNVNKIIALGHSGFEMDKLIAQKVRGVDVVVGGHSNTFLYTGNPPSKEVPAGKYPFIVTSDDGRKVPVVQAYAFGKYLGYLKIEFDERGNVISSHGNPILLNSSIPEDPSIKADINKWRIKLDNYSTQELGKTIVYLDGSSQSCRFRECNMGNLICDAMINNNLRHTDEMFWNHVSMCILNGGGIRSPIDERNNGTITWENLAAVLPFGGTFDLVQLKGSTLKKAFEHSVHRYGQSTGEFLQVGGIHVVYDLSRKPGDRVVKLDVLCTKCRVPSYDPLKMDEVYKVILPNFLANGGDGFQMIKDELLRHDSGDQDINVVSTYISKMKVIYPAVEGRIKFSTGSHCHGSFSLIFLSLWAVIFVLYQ

[5] = target: T5, 5'-nucleotidase (Rattus norvegicus) (UniProt P21588); test: Inhibition of rat Ecto-5'-nucleotidase transfected in COS7 cells at 1 mM preincubated for 10 mins followed by AMP addition measured after 10 mins; type: cell-based; conditions: COS-7
T5 sequence (whole entry): T1 sequence (P21588 whole entry)

[6] = target: Intestinal-type alkaline phosphatase (Bos taurus, UniProt P19111); test: Inhibition of calf intestinal alkaline phosphatase preincubated for 3 to 5 mins followed by CDP-star substrate addition measured after 15 mins by luminescence assay
Intestinal-type alkaline phosphatase, sequence (P19111 whole entry): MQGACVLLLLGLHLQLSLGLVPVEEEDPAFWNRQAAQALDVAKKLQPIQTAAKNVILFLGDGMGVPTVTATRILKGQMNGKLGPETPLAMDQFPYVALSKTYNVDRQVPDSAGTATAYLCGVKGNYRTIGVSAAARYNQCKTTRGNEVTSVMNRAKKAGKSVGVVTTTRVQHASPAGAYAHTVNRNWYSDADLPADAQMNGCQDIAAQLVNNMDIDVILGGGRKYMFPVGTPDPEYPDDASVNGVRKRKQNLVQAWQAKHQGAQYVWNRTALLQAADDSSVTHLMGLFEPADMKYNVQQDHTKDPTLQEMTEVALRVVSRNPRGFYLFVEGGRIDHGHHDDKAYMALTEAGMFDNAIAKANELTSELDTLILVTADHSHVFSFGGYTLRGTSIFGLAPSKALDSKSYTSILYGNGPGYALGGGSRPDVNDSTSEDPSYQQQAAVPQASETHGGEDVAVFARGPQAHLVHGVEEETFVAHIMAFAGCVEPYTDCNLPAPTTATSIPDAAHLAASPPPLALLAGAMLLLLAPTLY

[7] = target: T3, Alkaline phosphatase, tissue-nonspecific isozyme (Bos taurus); test: Inhibition of bovine tissue non-specific alkaline phosphatase at 0.2 mM preincubated for 3 to 5 mins followed by CDP-star substrate addition measured after 15 mins by luminescence assay
5'-nucleotidase [8] = target: T4, 5'-nucleotidase; test: Inhibition of human Ecto-5'-nucleotidase transfected in COS7 cells preincubated for 10 mins followed by AMP addition measured after 10 mins; type: cell-based, COS-7
[9] = target: Intestinal-type alkaline phosphatase (Bos taurus) (UniProt P19111); conditions: 0.5 to 2 uM
Intestinal-type alkaline phosphatase (Bos taurus), sequence (P19111 20-506 limits assumed): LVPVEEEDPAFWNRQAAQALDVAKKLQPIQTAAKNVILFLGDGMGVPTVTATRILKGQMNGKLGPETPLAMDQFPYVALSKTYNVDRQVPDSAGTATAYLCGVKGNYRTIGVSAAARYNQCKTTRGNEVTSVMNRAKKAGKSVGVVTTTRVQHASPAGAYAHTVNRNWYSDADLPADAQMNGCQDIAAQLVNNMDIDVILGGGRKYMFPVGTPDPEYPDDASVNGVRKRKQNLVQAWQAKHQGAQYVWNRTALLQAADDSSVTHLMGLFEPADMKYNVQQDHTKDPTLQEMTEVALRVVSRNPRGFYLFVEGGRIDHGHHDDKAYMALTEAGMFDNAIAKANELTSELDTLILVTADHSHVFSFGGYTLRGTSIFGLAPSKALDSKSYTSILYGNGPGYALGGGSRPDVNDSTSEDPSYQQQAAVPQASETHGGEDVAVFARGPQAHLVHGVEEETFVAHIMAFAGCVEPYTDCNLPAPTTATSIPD
Description: Competitive inhibition of calf intestinal alkaline phosphatase at 0.5 to 2 uM preincubated for 3 to 5 mins followed by CDP-star substrate addition measured after 15 mins by double-reciprocal plot analysis

| SMILES | IC50 (5'-nucleotidase [1]) | Ki (5'-nucleotidase [1]) | IC50 [2] | Ki [2] | inhibition [5] | IC50 [6] | Ki [6] | IC50 (5'-nucleotidase [8]) | Ki (5'-nucleotidase [8]) | other results |
| --- | --- | --- | --- | --- | --- | --- | --- | --- | --- | --- |
| CCOC1Oc2ccc(F)cc2C(=O)/C1=C\Nc1cccc(S(N)(=O)=O)c1 (racemic) | 0.99 µM | 0.047 µM |  |  |  |  |  |  |  |  |
| CCOC1Oc2ccc(Br)cc2C(=O)/C1=C\Nc1cccc(S(N)(=O)=O)c1 (racemic) | 6.13 µM | 0.292 µM |  |  |  |  |  |  |  |  |
| O=c1c(C2Nc3ccccc3S(=O)(=O)N2)coc2ccccc12 (racemic) | 3.81 µM | 0.181 µM |  |  |  |  |  |  |  |  |
| O=c1c(C2Nc3ccccc3S(=O)(=O)N2)coc2ccc(F)cc12 (racemic) | 2.71 µM | 0.129 µM |  |  |  |  |  |  |  |  |
| CCOC1Oc2c(Br)cc(Br)cc2C(=O)/C1=C\Nc1ccccc1S(N)(=O)=O (racemic) | 40.1 µM | 1.91 µM |  |  |  |  |  |  |  |  |
| CCOC1Oc2ccc(CC)cc2C(=O)/C1=C\Nc1ccccc1S(N)(=O)=O (racemic) | 0.101 µM | 0.0047 µM |  |  |  |  |  |  |  |  |
| CCOC1Oc2ccccc2C(=O)/C1=C\Nc1ccc(S(=O)(=O)Nc2ccccn2)cc1 (racemic) | 15.2 µM | 0.712 µM |  |  |  |  |  |  |  |  |
| COC1Oc2ccccc2C(=O)/C1=C\Nc1cccc(S(N)(=O)=O)c1 (racemic) | 2.81 µM | 0.134 µM |  |  |  | 39.8 µM | 16.9 µM | 0.38 µM | 0.018 µM | inhibition [7]: 32.1% |
| CCOC1Oc2ccccc2C(=O)/C1=C\Nc1ccc(S(=O)(=O)Nc2ccc(OC)nn2)cc1 (racemic) | 1.09 µM | 0.0517 µM |  |  |  |  |  |  |  |  |
| COC1Oc2c(Cl)cc(Cl)cc2C(=O)/C1=C\Nc1ccc(S(N)(=O)=O)cc1 (racemic) | 10.1 µM | 0.472 µM | 16.2 µM | 6.19 µM |  | 3.25 µM | 1.38 µM | 2.92 µM | 0.138 µM |  |
| COC1Oc2ccc(F)cc2C(=O)/C1=C\Nc1ccccc1S(N)(=O)=O (racemic) |  |  | 17.1 µM | 7.29 µM | 45.4% | 10.2 µM | 4.26 µM |  |  | inhibition (5'-nucleotidase [4]): 48.2% |
| CCCCOC1Oc2ccccc2C(=O)/C1=C\Nc1cccc(S(N)(=O)=O)c1 (racemic) | 3.61 µM | 0.172 µM | 77.8 µM | 33.2 µM |  | 2.29 µM | 0.978 µM | 0.377 µM | 0.018 µM |  |
| COC1Oc2ccc(Cl)cc2C(=O)/C1=C\Nc1ccccc1S(N)(=O)=O (racemic) | 1.31 µM | 0.062 µM |  |  |  | 2.32 µM | 0.992 µM | 1.35 µM | 0.064 µM | inhibition [7]: 29.9% |
| COC1Oc2ccccc2C(=O)/C1=C\Nc1ccccc1S(N)(=O)=O (racemic) | 2.39 µM | 0.114 µM | 715 µM | 305 µM |  | 7.81 µM | 3.34 µM | 1.91 µM | 0.091 µM |  |
| COC1Oc2c(Cl)cc(Cl)cc2C(=O)/C1=C\Nc1ccccc1S(N)(=O)=O (racemic) | 1.84 µM | 0.087 µM | 5.36 µM | 2.28 µM |  | 9.87 µM | 4.21 µM | 0.88 µM | 0.042 µM |  |
| COC1Oc2c(Cl)cc(Cl)cc2C(=O)/C1=C\Nc1cccc(S(N)(=O)=O)c1 (racemic) | 4.81 µM | 0.229 µM | 3.52 µM | 1.49 µM |  | 8.34 µM | 3.59 µM | 0.97 µM | 0.046 µM |  |
| CCCCOC1Oc2ccccc2C(=O)/C1=C\Nc1ccc(S(N)(=O)=O)cc1 (racemic) |  |  | 4.57 µM | 1.95 µM | 6.66% | 48.3 µM | 20.6 µM | 1.32 µM | 0.063 µM |  |
| CCOC1Oc2ccc(Br)cc2C(=O)/C1=C\Nc1ccc(S(=O)(=O)Nc2ccccn2)cc1 (racemic) |  |  |  |  | 23.6% |  |  |  |  |  |
| CCOC1Oc2ccc(CC)cc2C(=O)/C1=C\Nc1cccc(S(N)(=O)=O)c1 (racemic) |  |  |  |  | 40.5% |  |  |  |  |  |
| CCOC1Oc2ccccc2C(=O)/C1=C\Nc1ccc(S(=O)(=O)Nc2cc(OC)nc(OC)n2)cc1 (racemic) |  |  |  |  | 28.2% |  |  |  |  |  |
| CCOC1Oc2ccccc2C(=O)/C1=C\Nc1ccc(S(=O)(=O)Nc2nnc(C)s2)cc1 (racemic) |  |  |  |  | 48% |  |  |  |  |  |
| CCOC1Oc2ccccc2C(=O)/C1=C\Nc1cccc(S(N)(=O)=O)c1 (racemic) |  |  |  |  | 30.1% |  |  |  |  |  |
| O=c1c(C2Nc3ccccc3S(=O)(=O)N2)coc2ccc(Br)cc12 (racemic) |  |  |  |  | 20.3% |  |  |  |  |  |

Second part, led by results:

| IC50 (5'-nucleotidase [1]) | Ki (5'-nucleotidase [1]) | IC50 [2] | Ki [2] | inhibition [5] | IC50 [6] | Ki [6] | IC50 (5'-nucleotidase [8]) | Ki (5'-nucleotidase [8]) | SMILES | other results |
| --- | --- | --- | --- | --- | --- | --- | --- | --- | --- | --- |
| 2.13 µM | 0.101 µM |  |  |  |  |  |  |  | CCOC1Oc2ccc(F)cc2C(=O)/C1=C\Nc1ccc(S(N)(=O)=O)cc1 (racemic) |  |
| 3.73 µM | 0.178 µM |  |  |  |  |  |  |  | CCOC1Oc2ccc(CC)cc2C(=O)/C1=C\Nc1ccc(S(N)(=O)=O)cc1 (racemic) |  |
|  |  | 0.18 µM | 0.078 µM | 47.8% | 5.06 µM | 2.18 µM |  |  | COC1Oc2ccc(C)cc2C(=O)/C1=C\Nc1ccccc1S(N)(=O)=O (racemic) | Ratio Ki (Bos taurus): 28; inhibition [3]: Active; inhibition (5'-nucleotidase [4]): 39.1% |
|  |  | 1.46 µM | 0.623 µM | 46% | 13.5 µM | 5.66 µM |  |  | COC1Oc2ccc(F)cc2C(=O)/C1=C\Nc1cccc(S(N)(=O)=O)c1 (racemic) | inhibition (5'-nucleotidase [4]): 44.4% |
|  |  | 17.6 µM | 7.51 µM | 46.4% | 68.6 µM | 29.1 µM |  |  | COC1Oc2ccc(F)cc2C(=O)/C1=C\Nc1ccc(S(N)(=O)=O)cc1 (racemic) | inhibition (5'-nucleotidase [4]): 46.8% |
| 1.71 µM | 0.081 µM |  |  |  | 4.43 µM | 1.89 µM | 1.66 µM | 0.079 µM | COC1Oc2ccc(Cl)cc2C(=O)/C1=C\Nc1ccc(S(N)(=O)=O)cc1 (racemic) | inhibition [7]: 20.9% |
|  |  | 8.17 µM | 3.49 µM | 42.9% | 3.13 µM | 1.34 µM |  |  | COC1Oc2ccc(C)cc2C(=O)/C1=C\Nc1ccc(S(N)(=O)=O)cc1 (racemic) | inhibition (5'-nucleotidase [4]): 47% |
| 0.54 µM | 0.026 µM | 47.1 µM | 20.1 µM |  | 0.527 µM | 0.22 µM | 1.17 µM | 0.053 µM | CC(C)OC1Oc2ccccc2C(=O)/C1=C\Nc1ccc(S(N)(=O)=O)cc1 (racemic) |  |
|  |  | 110 µM | 47.2 µM | 47.5% | 6.56 µM | 2.77 µM |  |  | COC1Oc2ccc(C)cc2C(=O)/C1=C\Nc1cccc(S(N)(=O)=O)c1 (racemic) | inhibition (5'-nucleotidase [4]): 44.5% |
|  |  | 171 µM | 72.9 µM | 27.7% | 0.565 µM | 0.24 µM | 7.11 µM | 0.338 µM | COC1Oc2ccccc2C(=O)/C1=C\Nc1ccc(S(N)(=O)=O)cc1 (racemic) | inhibition [9]: Active |
| 2.38 µM | 0.113 µM |  |  |  | 31.9 µM | 13.6 µM | 0.56 µM | 0.027 µM | COC1Oc2ccc(Cl)cc2C(=O)/C1=C\Nc1cccc(S(N)(=O)=O)c1 (racemic) | inhibition [7]: 34.2% |
|  |  |  |  | 29.7% |  |  |  |  | CCOC1Oc2ccc(Br)cc2C(=O)/C1=C\Nc1ccc(S(N)(=O)=O)cc1 (racemic) |  |
|  |  |  |  | 39.5% |  |  |  |  | CCOC1Oc2ccccc2C(=O)/C1=C\Nc1ccc(S(N)(=O)=O)cc1 (racemic) |  |
